The source of these data is ChEMBL document CHEMBL1201862, “PubChem BioAssay data set” (2004).

What all share (assay): NCI-60 cell line screen, 48 h
Experiment [1] relates to HOP-92.
Experiment [2] concerns SK-MEL-5.
The test system of experiment [3] is NCI-H226.
Experiment [4] deals with SR.
Experiment [5] deals with SF-295.
Experiment [6] concerns HCT-116.
In experiment [7] the test system is SF-539.
Experiment [8] concerns OVCAR-3.
In experiment [9] the test system is TK-10.
Experiment [10] concerns KM12.
The test system of experiment [11] is NCI-H460.
Experiment [12] deals with OVCAR-5.
Experiment [13] concerns HCC 2998.
Experiment [14] has as its system EKVX.
The subject of experiment [15] is UACC-257.
The test system of experiment [16] is SNB-75.
Experiment [17] concerns HT-29.
Experiment [18] has as its system ACHN.

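How tested: cells in 96-well plates exposed to compound for 48 hours at five concentrations. GI50: concentration for 50% inhibition of growth.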 Calls of active or inactive are those of the source. No stated cut-off is given here; in the data, active = GI50 up to about 1.1 µM and inactive = higher. Where only a bound is given, the exact number is not on record here.

Take `O=C1c2c(c(-c3ccccc3)c(-c3ccccc3)c(-c3ccccc3)c2-c2ccccc2)C(=O)N1c1cccc(Br)c1`: the GI50 in experiment [1], in experiment [2], in experiment [3], in experiment [4], in [5] and in experiment [6] was > 100 µM (inactive) throughout. Further, the GI50 in [7], in experiment [8], in experiment [9], in experiment [10], in experiment [11] and in experiment [12] was > 100 µM (inactive) each time. Also, the GI50 in experiment [13], in experiment [14], in [15] and in experiment [16] was > 100 µM (inactive) throughout.

In the case of `O=C(NC(=O)c1cn(CCNCCO)c(=O)[nH]c1=O)OCc1ccccc1`, the GI50 in experiment [17], in [1], in [2], in experiment [3], in experiment [4] and in [5] was > 100 µM (inactive) throughout. Also, the GI50 in experiment [6], in experiment [7], in experiment [8], in experiment [9], in experiment [10] and in experiment [11] was > 100 µM (inactive) each time. In addition, the GI50 is > 100 µM (inactive) in experiment [12], > 100 µM (inactive) in [18], > 100 µM (inactive) in experiment [14] and 45.9 µM (inactive) in [16].

With `O=C(/C=C/c1ccccc1O)c1ccccc1Cl`, the GI50 in experiment [17] was > 100 µM (inactive); in [1], 28.8 µM (inactive); in experiment [2], 42.3 µM (inactive); in experiment [3] it was > 100 µM (inactive); in experiment [4] it was 27.7 µM (inactive); in [5], > 100 µM (inactive). In addition, the GI50 is 48.6 µM (inactive) in experiment [6]; 44.5 µM (inactive) in experiment [7]; 38.1 µM (inactive) in experiment [8]; 90.4 µM (inactive) in experiment [9]; 24.6 µM (inactive) in experiment [10]; 34 µM (inactive) in experiment [11]. Also, the GI50 is > 100 µM (inactive) in experiment [12]; 38.1 µM (inactive) in [13]; 51.5 µM (inactive) in experiment [18]; 41.6 µM (inactive) in experiment [14]; > 100 µM (inactive) in experiment [15]; 14.8 µM (inactive) in [16].

With `CN(C)/N=C(/c1nc2ccc([N+](=O)[O-])cc2nc1O)C(O)c1ccco1` (stereo unspecified), the GI50 in experiment [17] was > 100 µM (inactive); in experiment [1] it was > 100 µM (inactive); in experiment [2] it was 70.1 µM (inactive); in [3] it was > 100 µM (inactive); in experiment [4], > 100 µM (inactive); in [5] it was > 100 µM (inactive). Moreover, the GI50 was > 100 µM (inactive) in experiment [6]; > 100 µM (inactive) in experiment [7]; > 100 µM (inactive) in experiment [8]; 34.8 µM (inactive) in experiment [10]; > 100 µM (inactive) in [11]; > 100 µM (inactive) in experiment [12]. The GI50 was 53 µM (inactive) in experiment [13], 35.4 µM (inactive) in [18], > 100 µM (inactive) in experiment [15] and > 100 µM (inactive) in [16].

Consider `COc1cc(OC)c2c(c1)C(=O)C(CC(C)O)=CC2=O` (stereo unspecified), for which the GI50 was 19.1 µM (inactive) in experiment [17]; 11.1 µM (inactive) in experiment [1]; 14.7 µM (inactive) in experiment [2]; 20.8 µM (inactive) in experiment [3]; 2 µM (inactive) in experiment [4]; 14.2 µM (inactive) in [5]. The GI50 in [6] was 12.5 µM (inactive); in experiment [7], 18.4 µM (inactive); in experiment [8] it was 5.82 µM (inactive); in [9], 19.9 µM (inactive); in [10] it was 19.5 µM (inactive); in experiment [11], 23.6 µM (inactive). Also, the GI50 is 18.4 µM (inactive) in [12]; 28.6 µM (inactive) in experiment [13]; 16.6 µM (inactive) in experiment [18]; 12 µM (inactive) in experiment [14]; 16.6 µM (inactive) in experiment [15]; 25.8 µM (inactive) in [16].

For `CCc1cccc(C(C)CC)c1/N=C(/NC(=O)c1ccccc1C(=O)N/C(=N/c1c(CC)cccc1C(C)CC)SC)SC` (stereo unspecified), the GI50 in [17] is 40.4 µM (inactive); in experiment [1] it was 10.5 µM (inactive); in experiment [3], 17.7 µM (inactive); in experiment [4], 39.6 µM (inactive); in experiment [5] it was 37.4 µM (inactive); in experiment [6], 34.4 µM (inactive). The GI50 in [7] is 26.5 µM (inactive); in experiment [8], 36.6 µM (inactive); in experiment [9], 30.8 µM (inactive); in experiment [10], 36 µM (inactive); in experiment [11], 50.4 µM (inactive); in experiment [12], 60.1 µM (inactive). The GI50 in [13] was 49.8 µM (inactive); in [18] it was 36.1 µM (inactive); in [14] it was 35.6 µM (inactive); in [15], 54.3 µM (inactive).

For `CC(=O)N1c2ccccc2N(C(C)=O)C1c1ccc(C2N(C(C)=O)c3ccccc3N2C(C)=O)[nH]1`, the GI50 in [17], in experiment [1], in [2], in experiment [3], in experiment [4] and in experiment [5] was > 100 µM (inactive) each time. The GI50 in experiment [6], in [7], in experiment [8], in experiment [9], in experiment [10] and in [11] was > 100 µM (inactive) in each case. Moreover, the GI50 in experiment [12], in experiment [13], in [14], in experiment [15] and in experiment [16] was > 100 µM (inactive) in each case.

For `CC1CN(c2ccc(Cl)cc2)CC(C)OC(=O)O1` (stereo unspecified), the GI50 in experiment [17], in experiment [1], in experiment [2], in experiment [3], in experiment [4] and in experiment [5] was > 100 µM (inactive) throughout. For the same molecule, the GI50 in experiment [7], in experiment [8], in experiment [9], in [10], in experiment [11] and in experiment [12] was > 100 µM (inactive) throughout. Further, the GI50 in [13], in [18], in experiment [14], in experiment [15] and in [16] was > 100 µM (inactive) each time.

Regarding `Clc1ccc(OCc2nnc3n2N=C(c2ccc(Br)cc2)CS3)cc1`, the GI50 in [17] is 36.2 µM (inactive); in experiment [1], 11.2 µM (inactive); in experiment [2] it was > 10 µM (inactive); in [3], 53.1 µM (inactive); in experiment [4], > 100 µM (inactive); in experiment [5] it was 15.8 µM (inactive). Further, the GI50 in experiment [6] is 22.6 µM (inactive); in experiment [7] it was 8.43 µM (inactive); in experiment [8], > 10 µM (inactive); in experiment [9], 14.4 µM (inactive); in [10] it was 80.7 µM (inactive); in experiment [11], 17.7 µM (inactive). In addition, the GI50 in [12] was > 100 µM (inactive); in experiment [13] it was 84.5 µM (inactive); in experiment [18] it was 23.2 µM (inactive); in experiment [15], 23.1 µM (inactive); in experiment [16], 2.96 µM (inactive).

For the molecule `CN1C(OCc2ccccc2)c2c(ccc3c2OCO3)C2C=Cc3cc4c(cc3C21)OCO4` (stereo unspecified), the GI50 in experiment [17] is 0.375 µM (active); in experiment [1], 1.08 µM (active); in [2] it was 1.31 µM (inactive); in experiment [3], 1.47 µM (inactive); in [4], 0.237 µM (active); in experiment [5], 1.47 µM (inactive). Also, the GI50 in experiment [6] is 0.398 µM (active); in experiment [7] it was 1.63 µM (inactive); in experiment [8], 0.69 µM (active); in experiment [9], 1.89 µM (inactive); in [10] it was 1.01 µM (active); in experiment [11] it was 1.48 µM (inactive). The GI50 in experiment [12] is 1.52 µM (inactive); in [13], 1.63 µM (inactive); in [18] it was 1.51 µM (inactive); in [14], 1.62 µM (inactive); in experiment [15], 1.37 µM (inactive); in experiment [16] it was 1.4 µM (inactive).

Consider `C=CCO[C@H]1CC[C@@]2(C)C(CC[C@]3(C)C2CC=C2[C@@H]4[C@@H](C)C(C)CC[C@]4(C(=O)O)CCC23C)C1(C)C` (stereo partly specified), for which the GI50 is 16.3 µM (inactive) in experiment [17]; 16.3 µM (inactive) in experiment [1]; 16.5 µM (inactive) in experiment [2]; 18.6 µM (inactive) in [3]; 13.8 µM (inactive) in experiment [4]; 14.2 µM (inactive) in experiment [5]. Further, the GI50 is 12.7 µM (inactive) in [6]; 17 µM (inactive) in [7]; 15.7 µM (inactive) in [8]; 18.2 µM (inactive) in experiment [9]; 16.1 µM (inactive) in [10]; 17.5 µM (inactive) in [11]. Besides, the GI50 in experiment [13] is 17.1 µM (inactive); in [18], 15.4 µM (inactive); in experiment [14] it was 21.2 µM (inactive); in experiment [15], 16.9 µM (inactive); in [16], 15.6 µM (inactive).
